According to patent US5747235A, “Silver halide light sensitive emulsion layer having enhanced photographic sensitivity” (Eastman Kodak Company, priority 1996, dated 1998):
Where a name gives a salt, the structure may show the parent alone.

Columns and labels:
[1] = Example 2: photographic speed and fog, 365 nm exposure, acids vs corresponding esters, emulsion T-1; set-up: Fog: unit not given here; details: for Fog / S365: undyed; for S365: control=100
Method: This chemically sensitized emulsion was then used to prepare the experimental coating variations indicated in Table I. All of the experimental coating variations in Table I contained the hydroxybenzene 2,4-disulfocatechol (HB3) at a concentration of 13 mmole/mole Ag, added to the melt before the addition of any further addenda. The fragmentable electron donor compounds as indicated in Table I were added from an aqueous potassium bromide solution, or from a methanol solution, before additional water, gelatin, and surfactant were added to the emulsion melts.
(§1) For photographic evaluation, each of the coating strips was exposed for 0.1 sec to a 365 nm emission line of a Hg lamp filtered through a Kodak Wratten filter number 18A and a step wedge ranging in density from 0 to 4 density units in 0.2 density steps. The exposed film strips were developed for 6 min in Kodak Rapid X-ray Developer (KRX). S365, relative sensitivity at 365 nm, was evaluated at a density of 0.2 units above fog.
The coatings described in Table II all contain the hydroxybenzene, 2,4-disulfocatechol (HB3) at a concentration of 13 mmole/mole Ag, added to the melt before any further addenda.

[2] = oxidation potential E1 by cyclic voltammetry; type: physicochemical; details: for E1 (V) for XY moiety: Table H, model compound, A and L replaced by alkyl
Method: Oxidation potentials are well known and can be found, for example, in "Encyclopedia of Electrochemistry of the Elements", Organic Section, Volumes XI-XV, A. Bard and H. Lund (Editors) Marcel Dekker Inc., NY. (1984). E1 can be measured by the technique of cyclic voltammetry. In this technique, the electron donating compound is dissolved in a solution of 80%/20% by volume acetonitrile to water containing 0.1M lithium perchlorate. Oxygen is removed from the solution by passing nitrogen gas through the solution for 10 minutes prior to measurement. A glassy carbon disk is used for the working electrode, a platinum wire is used for the counter electrode, and a saturated calomel electrode (SCE) is used for the reference electrode. Measurement is conducted at 25° C. using a potential sweep rate of 0.1 V/sec. The oxidation potential vs. SCE is taken as the peak potential of the cyclic voltammetric wave.

[3] = oxidation potential E2 of radical X by laser flash photolysis; type: physicochemical; details: Table H; model compound, A and L replaced by alkyl
Text: In this technique, the compound X-Y is oxidized by an electron transfer reaction initiated by a short laser pulse. The oxidized form of X-Y then undergoes the bond cleavage reaction to give the radical X^.cndot.. X^.cndot. is then allowed to interact with various electron acceptor compounds of known reduction potential. […] The experimental details are set forth more fully below. The oxidation potentials (E2) for radicals X^.cndot. for typical compounds useful in accordance with our invention are given in Table C. Where only limits on potentials could be determined, the following notation is used: <-0.90 V should be read as "more negative than -0.90 V" and >-0.40 V should be read as "less negative than -0.40 V".
(a) Oxidation Potential of Radical X.cndot.
The laser flash photolysis measurements were performed using a nanosecond pulsed excimer (Questek model 2620, 308 nm, ca. 20 ns, ca. 100 mJ) pumped dye laser (Lambda Physik model FL 3002). The laser dye was DPS (commercially available from Exciton Co.) in p-dioxane (410 nm, ca. 20 ns, ca. 10 mJ). The analyzing light source was a pulsed 150W xenon arc lamp (Osram XBO 150/W). The arc lamp power supply was a PRA model 302 and the pulser was a PRA model M-306. The pulser increased the light output by ca. 100 fold, for a time period of ca. 2-3 ms. The analyzing light was focussed through a small aperture (ca. 1.5 mm) in a cell holder designed to hold 1 cm^2 cuvettes. The laser and analyzing beams irradiated the cell from opposite directions and crossed at a narrow angle (ca. 15°). After leaving the cell, the analyzing light was collimated and focussed onto the slit (1 mm, 4 nm bandpass) of an ISA H-20 monochromator. The light was detected using 5 dynodes of a Hamamatsu model R446 photomultiplier. The output of the photomultiplier tube was terminated into 50 ohm, and captured using a Tektronix DSA-602 digital oscilloscope. The entire experiment is controlled from a personal computer.
The experiments were performed either in acetonitrile, or a mixture of 80% acetonitrile and 20% water. The first singlet excited state of a cyanoanthracene (A), which acted as the electron acceptor, was produced using the nanosecond laser pulse at 410 nm. […] Secondary electron transfer then occurred between B^.cndot.+ and the lower oxidation potential electron donor X-Y, to generate X-Y^.cndot.+ in high yield. For the investigations of the oxidation potentials of the radicals X^.cndot., typically the cyanoanthrancene concentration was ca. 2×10^-5 M to 10^-4 M the biphenyl concentration was ca. 0.1M. The concentration of the X-Y donor was ca. 10^-3 M. The rates of the electron transfer reactions are determined by the concentrations of the substrates. The concentrations used ensured that the A^.cndot.- and the X-Y^.cndot.+ were generated within 100 ns of the laser pulse. The radical ions could be observed directly by means of their visible absorption spectra. The kinetics of the photogenerated radical ions were monitored by observation of the changes in optical density at the appropriate wavelengths.
The reduction potential (Ered) of 9,10-dicyanoanthracene (DCA) is -0.91 V. In a typical experiment, DCA is excited and the initial photo-induced electron transfer from the biphenyl (B) to the DCA forms a DCA^.cndot.-, which is observed at its characteristic absorption maximum (λobs =705 nm), within ca. 20 ns of the laser pulse. Rapid secondary electron transfer occurs from X-Y to B^.cndot.+ to generate X-Y^.cndot.+, which fragments to give X^.cndot.. A growth in absorption is then observed at 705 nm with a time constant of ca. 1 microsecond, due to reduction of a second DCA by the X^.cndot.. The absorption signal with the microsecond growth time is equal to the size of the absorption signal formed within 20 ns.
If the oxidation potential of X^.cndot. is not sufficiently negative to reduce DCA, an estimate of its oxidation potential was obtained by using other cyanoanthracenes as acceptors. […]

[4] = fragmentation rate constant kfr by laser flash photolysis; type: physicochemical; details: Table H; model compound, A and L replaced by alkyl
Text: The kinetics of the bond cleavage or fragmentation reaction can be measured by conventional laser flash photolysis. […] The specific experimental apparatus we used to measure fragmentation rate constants and radical oxidation potentials is described in detail below.
(b) Fragmentation Rate Constant Determination
These absorptions were used to determine the kinetics of the fragmentation reactions of the radical cations of the X-Y. Excitation of 9,10-dicyanoanthracene (DCA) in the presence of biphenyl and the X-Y donor, as described above, results in the formation of the DCA^.cndot.- and the X-Y^.cndot.+. By using a concentration of X-Y of ca. 10^-2 M, the X-Y^.cndot.+ can be formed within ca. 20 ns of the laser pulse. […] The monitoring wavelengths used were somewhat different for the different donors, but were mostly around 470-530 nm. […] Alternatively, when the decay rate of the X-Y^.cndot.+ was less than 10^6 s^-1, the solutions were purged with oxygen.
The experiments measuring the fragmentation rate constants were performed in acetonitrile with the addition of 20% water, so that all of the salts could be easily solubilized. Most experiments were performed at room temperature. […] When this happened, the fragmentation rate constants were measured as a function of temperature, and the rate constant at room temperature determined by extrapolation.

[5] = Example 10: photographic sensitivity and fog, color format, blue sensitized emulsion T-2; details: for Photographic Sensitivity SWR2B: control=100
Method: The hydroxybenzene, 2,4-disulfocatechcol (HB3) at a concentration of 13×10^-3 mole/mole Ag was added to the emulsion melt before the start of the chemical sensitization procedure. […] The fragmentable two-electron donors S-3, S-9, S-6, or S-8 were then added to the emulsion melt.
The melts were prepared for coating by adding additional water, deionized gelatin and coating surfactants. Coatings were prepared by combining the emulsion melts with a melt containing deionized gelatin and an aqueous dispersion of the cyan-forming color coupler CC-1 and coating the resulting mixture on acetate support. […] The structure of the color coupler CC-1 is given below: [drawing 120]
For photographic evaluation, each of the coating strips was exposed for 0.01 sec to a 3000K color temperature tungsten lamp filtered to give an effective color temperature of 5500K and further filtered through a Kodak Wratten filter number 2B, and a step wedge ranging in density from 0 to 4 density units in 0.20 density steps. This exposure gives light absorbed mainly by the blue sensitizing dye. The exposed film strips were developed for 31/4 minutes in Kodak C-41 color developer. SWR2B, relative sensitivity for this filtered exposure, was evaluated at a cyan density of 0.15 units above fog.

[6] = Example 5: photographic speed and fog, 365 nm exposure, fragmenting vs non-fragmenting one-electron donors, emulsion T-2; set-up: Fog: unit not given here; details: for sensitivity and fog change: undyed T-2 emulsion
Method: as §1
An AgBrI tabular silver halide emulsion (Emulsion T-2) was prepared containing 4.05% total I distributed such that the central portion of the emulsion grains contained 1.5% I and the perimeter area contained substantially higher I, as described by Chang et. al., U.S. Pat. No. 5,314,793. […] This emulsion was precipitated using deionized gelatin. The emulsion was sulfur sensitized by adding 8.5×10^-6 mole 1,3-dicarboxymethyl-1,3-dimethyl-2-thiourea /mole Ag at 40° C.; the temperature was then raised to 60° C. at a rate of 5° C./3 min and the emulsions held for 20 min before cooling to 40° C. The chemically sensitized emulsion was then used to prepare coatings containing the fragmentable two-electron donor compounds. […] Where present, the blue sensitizing dye D-I or the red sensitizing dye D-II were added from methanol solution to the emulsion at 40° C. after the chemical sensitization and disulfocatechol addition. The fragmentable two-electron donor compounds were added to the emulsion at 40° C. and the coatings were prepared and tested as described in Example 1, except that the additional gelatin used to prepare the coatings described in Table III was deionized gelatin.
Where present, the sensitizing dye D-II was added from methanol solution to the emulsion at 40° C. after the chemical sensitization but before the addition of the one-electron donating compound. The coatings were tested for their response to a 365 nm exposure as described in Example 1. For this exposure, the relative sensitivity was set equal to 100 for the control coating with no one-electron donating compound added.

[7] = 0.044 x10^-3 mole/mole Ag, dye D-II 0.86 x10^-3
[8] = 0.044 x10^-3 mole/mole Ag, dye D-II 0.86 x10^-3, dyed control 69
[9] = 0.044 x10^-3 mole/mole Ag, no dye, no HB3
[10] = 0.044 x10^-3 mole/mole Ag, no dye, no HB3, control=100
[11] = 0.14 x10^-3 mole/mole Ag, dye D-II 0.86 x10^-3
[12] = 0.14 x10^-3 mole/mole Ag, dye D-II 0.86 x10^-3, dyed control 69
[13] = 0.14 x10^-3 mole/mole Ag, no dye, no HB3
[14] = 0.14 x10^-3 mole/mole Ag, no dye, no HB3, control=100

| Structure (SMILES) | E1 (V) for XY moiety [2] [V] | E2 (V) for XY moiety [3] [V] | kfr (s^-1) for XY moiety [4] | Fog [6, 7] | S365 [6, 8] | Fog [6, 9] | S365 [6, 10] | Fog [6, 11] | S365 [6, 12] | Fog [6, 13] | S365 [6, 14] | sensitivity and fog change [6] | E1 (V) ([2]; Table V) | also measured |
| --- | --- | --- | --- | --- | --- | --- | --- | --- | --- | --- | --- | --- | --- | --- |
| CCSCCN(c1ccc(OC)cc1)C(C)C(=O)O (centres unmarked) [Compound S-1, sodium salt] | 0.22 | < -0.9 | 1.1e+06 s⁻¹ | – | – | – | – | – | – | – | – | – | – | Fog ([1]; 0.00022 x10^-3 mole/mole Ag): 0.06; S365 ([1]; 0.00022 x10^-3 mole/mole Ag): 107; Fog ([1]; 0.00070 x10^-3 mole/mole Ag): 0.28; S365 ([1]; 0.00070 x10^-3 mole/mole Ag): 89; Fog ([1]; 0.00220 x10^-3 mole/mole Ag): 0.82; speed and fog change ([1]; undyed T-1 emulsion): both speed and fog increases; E1 (V) ([2]; Table II): 0.35 V |
| CCSCCN(CC(=O)[O-])c1ccc(C)cc1.[Na+] [Compound S-6, N-(4-Methylphenyl)-N-(2-ethylthio-ethyl)glycine sodium salt] | – | – | – | – | – | – | – | – | – | – | – | – | – | Fog ([5]; 0.022 x10^-3 mol/mol Ag): 0.14; Photographic Sensitivity SWR2B ([5]; 0.022 x10^-3 mol/mol Ag): 120; Fog ([5]; 0.07 x10^-3 mol/mol Ag): 0.21; Photographic Sensitivity SWR2B ([5]; 0.07 x10^-3 mol/mol Ag): 126; E1 (V) ([2]; Table X): 0.45 V |
| CCSCCN(CCSCC)c1ccc(CC(=O)O)cc1 [Compound S-17, Sodium 2-(4-N,N-bis(ethylthioethyl)aminophenyl)acetate] | 0.57 | < -0.5 | ≈ 3 × 10^5 s^-1 | 0.11 | 80 | 0.05 | 110 | 0.11 | 89 | 0.06 | 120 | increased the 365 nm sensitivity of the undyed emulsion | 0.62 | – |
| CCSCCNC(=O)CCN(CC)c1ccc(CC(=O)O)cc1 [Compound S-18] | 0.57 | < -0.5 | ≈ 3 × 10^5 s^-1 | 0.05 | 95 | 0.05 | 135 | 0.06 | 107 | 0.06 | 148 | increased the 365 nm sensitivity of the undyed emulsion | 0.68 | – |
